{"source": "paper PMC4393105", "about": "“tRNA^Glu Increases the Affinity of Glutamyl-tRNA Synthetase for Its Inhibitor Glutamyl-Sulfamoyl-Adenosine, an Analogue of the Aminoacylation Reaction Intermediate Glutamyl-AMP: Mechanistic and Evolutionary Implications” (PLoS ONE, 2015)", "key": {"E. coli GluRS": {"target": "T1, E. coli GluRS (Escherichia coli, UniProt P04805)", "T1 construct": "His tag (histidine tag) (C); made in house", "T1 sequence (P04805 whole entry)": "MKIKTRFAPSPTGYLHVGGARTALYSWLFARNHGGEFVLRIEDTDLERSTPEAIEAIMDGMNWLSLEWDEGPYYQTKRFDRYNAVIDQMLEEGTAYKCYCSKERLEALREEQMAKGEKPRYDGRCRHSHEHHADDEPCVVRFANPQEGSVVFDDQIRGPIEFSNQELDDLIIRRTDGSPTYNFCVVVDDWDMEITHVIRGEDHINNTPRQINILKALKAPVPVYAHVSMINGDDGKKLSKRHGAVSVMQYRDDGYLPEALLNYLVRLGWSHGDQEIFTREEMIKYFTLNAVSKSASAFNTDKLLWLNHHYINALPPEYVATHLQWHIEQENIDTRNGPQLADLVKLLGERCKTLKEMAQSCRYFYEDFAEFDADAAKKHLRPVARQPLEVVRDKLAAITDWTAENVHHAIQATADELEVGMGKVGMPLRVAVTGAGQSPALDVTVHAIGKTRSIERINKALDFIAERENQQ", "assay": "Isothermal titration microcalorimetry of Glu-AMS binding to GluRS in the absence of tRNA", "conditions": "no tRNA; for Kd: Kd (dissociation constant), Kd = 1/Kb", "procedure": "Overproduction and purification of E. coli GluRS were performed as previously described with the following modifications. A C-terminal histidine-tagged GluRS was used instead of the N-terminal tagged one. The overproduction was induced overnight at 30°C with 1 mM IPTG.\nThe GluRS solution with or without tRNA was dialyzed overnight in a D-tube dialyzer (Novagen) against 2 L of dialysis buffer (50 mM HEPES-KOH, pH 7.2, 10 mM MgCl2) at 4°C with light stirring. The next morning, the dialyzed solution was recovered and the volume adjusted by adding dialysis buffer to obtain the desired concentration (typically 9 μM GluRS and 11 μM tRNA^Glu). This solution was kept on ice until use. Glu-AMS was diluted in the dialysis buffer to obtain a final concentration of 90 μM. All buffers and solutions were degased with stirring under vacuum. The microcalorimetry experiments were carried out in a VP-ITC 100 microcalorimeter (MicroCal, GE Healthcare) using deionized water as an internal reference for all assays. VPViewer ITC 2000 and Origin v 5.0 softwares (Microcal Software, Inc) were used for data collection and analysis, respectively.\nTo measure the thermodynamic parameters of the interaction between Glu-AMS and GluRS, in the presence and in the absence of tRNA, a solution containing 9 μM GluRS with or without a stoichiometric excess of tRNA^Glu or S. cerevisiae tRNA^Phe (Table 1) was placed in the sample cell of the microcalorimeter. The following conditions were used for all tests: reference power was set at 12 μcal/s and stirring at 300 rpm, the “high” feedback mode and “No check Temp”, “Fast Equil” and “Auto” ITC equilibration options were selected. The 90 μM Glu-AMS solution was loaded in the injection syringe. After a first injection of 1 μL over 2 s, a series of 39 injections (7.4 μL over 14.8 s) with 240 s between injections was performed. Injections of Glu-AMS in GluRS alone, GluRS•tRNA^Glu or GluRS•tRNA^Phe, were performed at 30°C (303 K), and done in duplicate. Injections of Glu-AMS in GluRS were also performed at 20°C and 37°C (293 and 310 K): 14 injections (20 μL over 40 s) followed the first injection of 1 μL. Each temperature was tested in duplicate, and in triplicate at 37°C.\nThe following nomenclature was used to describe the interaction at equilibrium between Glu-AMS and either GluRS or a GluRS•tRNA complex: GluRS•Glu-AMS↔GluRS+[…] Kd=[GluRS]×[Glu-AMS]/[GluRS•Glu-AMS] 1/Kd=Kb (binding constant, sometimes referred to as Ka)."}, "murine hepatic GluRS": {"system": "murine hepatic GluRS", "set-up": "method as in PMID 15895686", "conditions": "cited from earlier work"}, "[1]": {"conditions": "single ITC run, 293 K, [ligand] 90 µM, [GluRS] 4.15 µM"}, "[2]": {"conditions": "single ITC run, 293 K, [ligand] 90 µM, [GluRS] 4.35 µM"}, "[3]": {"conditions": "single ITC run, 303 K, [ligand] 90 µM, [GluRS] 4.143 µM"}, "[4]": {"conditions": "single ITC run, 303 K, [ligand] 90 µM, [GluRS] 5.355 µM"}, "[5]": {"conditions": "single ITC run, 310 K, [ligand] 90 µM, [GluRS] 3.169 µM"}, "[6]": {"conditions": "single ITC run, 310 K, [ligand] 90 µM, [GluRS] 3.931 µM"}, "[7]": {"conditions": "single ITC run, 310 K, [ligand] 90 µM, [GluRS] 4.015 µM"}, "[8]": {"conditions": "30°C (303 K), weighted mean of ITC runs"}}, "note": "Where “and” joins values, the source holds several entries; their conditions need not be identical. Identical values can stand only once."}
{"smiles": "Nc1ncnc2c1ncn2[C@@H]1O[C@H](COS(=O)(=O)NC(=O)[C@@H](N)CCC(=O)O)[C@@H](O)[C@H]1O", "note": "[Glu-AMS, 5’-O-[N-(L-glutamyl)sulfamoyl]adenosine]", "values": [{"measurement": "Kd", "setting": "E. coli GluRS; [1]", "result": "545 ± 162", "unit": "nM"}, {"measurement": "Kd", "setting": "E. coli GluRS; [2]", "result": "547 ± 150", "unit": "nM"}, {"measurement": "Kd", "setting": "E. coli GluRS; [3]", "result": "281 ± 39", "unit": "nM"}, {"measurement": "Kd", "setting": "E. coli GluRS; [4]", "result": "307 ± 28", "unit": "nM"}, {"measurement": "Kd", "setting": "E. coli GluRS; [5]", "result": "256 ± 20", "unit": "nM"}, {"measurement": "Kd", "setting": "E. coli GluRS; [6]", "result": "318 ± 82", "unit": "nM"}, {"measurement": "Kd", "setting": "E. coli GluRS; [7]", "result": "231 ± 37", "unit": "nM"}, {"measurement": "-TΔSb", "setting": "E. coli GluRS; [8]", "result": "-3.996 ± 0.05", "unit": "kcal/mol"}, {"measurement": "n (stoichiometry coefficient)", "setting": "E. coli GluRS; [8]", "result": "0.9998 ± 0.0094"}, {"measurement": "ΔHb (reaction enthalpy)", "setting": "E. coli GluRS; [8]", "result": "-5.041 ± 0.063", "unit": "kcal/mol"}, {"measurement": "ΔSb (reaction entropy)", "setting": "E. coli GluRS; [8]", "result": "13.2 cal/mol·K and 13.19 ± 0.16 cal/mol·K"}, {"measurement": "-TΔSb", "setting": "E. coli GluRS; 293 K, mean of ITC runs", "result": "-4.479 ± 0.218", "unit": "kcal/mol"}, {"measurement": "n (stoichiometry coefficient)", "setting": "E. coli GluRS; 293 K, mean of ITC runs", "result": "1.0097 ± 0.0369"}, {"measurement": "ΔHb (reaction enthalpy)", "setting": "E. coli GluRS; 293 K, mean of ITC runs", "result": "-3.929 ± 0.191", "unit": "kcal/mol"}, {"measurement": "ΔSb (reaction entropy)", "setting": "E. coli GluRS; 293 K, mean of ITC runs", "result": "15.29 ± 0.74", "unit": "cal/mol·K"}, {"measurement": "ΔGb (reaction energy)", "setting": "E. coli GluRS; 293 K, mean of ITC runs, ΔGb = -RT Ln Kb", "result": "-8.396 ± 0.0016", "unit": "kcal/mol"}, {"measurement": "-TΔSb", "setting": "E. coli GluRS; 310 K, mean of ITC runs", "result": "-2.835 ± 0.036", "unit": "kcal/mol"}, {"measurement": "n (stoichiometry coefficient)", "setting": "E. coli GluRS; 310 K, mean of ITC runs", "result": "1.0016 ± 0.0095"}, {"measurement": "ΔHb (reaction enthalpy)", "setting": "E. coli GluRS; 310 K, mean of ITC runs", "result": "-6.395 ± 0.081", "unit": "kcal/mol"}, {"measurement": "ΔSb (reaction entropy)", "setting": "E. coli GluRS; 310 K, mean of ITC runs", "result": "9.146 ± 0.117", "unit": "cal/mol·K"}, {"measurement": "ΔGb (reaction energy)", "setting": "E. coli GluRS; 310 K, mean of ITC runs, ΔGb = -RT Ln Kb", "result": "-9.326 ± 0.1", "unit": "kcal/mol"}, {"measurement": "change in heat capacity (ΔCp)", "setting": "E. coli GluRS; from ΔHb at 293, 303 and 310 K", "result": "-143 ± 23", "unit": "cal/mol·K"}, {"measurement": "-TΔSb", "setting": "E. coli GluRS; [1]", "result": "-4495 ± 320"}, {"measurement": "n (stoichiometry coefficient)", "setting": "E. coli GluRS; [1]", "result": "1.014 ± 0.054"}, {"measurement": "ΔGb (reaction energy)", "setting": "E. coli GluRS; [1]", "result": -8.397, "unit": "kcal/mol"}, {"measurement": "ΔHb (reaction enthalpy)", "setting": "E. coli GluRS; [1]", "result": "-3.909 ± 0.279", "unit": "kcal/mol"}, {"measurement": "ΔSb (reaction entropy)", "setting": "E. coli GluRS; [1]", "result": "15.34 ± 1.09", "unit": "cal/mol·K"}, {"measurement": "-TΔSb", "setting": "E. coli GluRS; [2]", "result": "-4465 ± 297"}, {"measurement": "n (stoichiometry coefficient)", "setting": "E. coli GluRS; [2]", "result": "1.006 ± 0.050"}, {"measurement": "ΔGb (reaction energy)", "setting": "E. coli GluRS; [2]", "result": -8.395, "unit": "kcal/mol"}, {"measurement": "ΔHb (reaction enthalpy)", "setting": "E. coli GluRS; [2]", "result": "-3.946 ± 0.263", "unit": "kcal/mol"}, {"measurement": "ΔSb (reaction entropy)", "setting": "E. coli GluRS; [2]", "result": "15.24 ± 1.01", "unit": "cal/mol·K"}, {"measurement": "-TΔSb", "setting": "E. coli GluRS; [3]", "result": "-3936 ± 97"}, {"measurement": "n (stoichiometry coefficient)", "setting": "E. coli GluRS; [3]", "result": "0.9963 ± 0.0184"}, {"measurement": "ΔGb (reaction energy)", "setting": "E. coli GluRS; [3]", "result": -9.083, "unit": "kcal/mol"}, {"measurement": "ΔHb (reaction enthalpy)", "setting": "E. coli GluRS; [3]", "result": "-5.142 ± 0.127", "unit": "kcal/mol"}, {"measurement": "ΔSb (reaction entropy)", "setting": "E. coli GluRS; [3]", "result": "12.99 ± 0.32", "unit": "cal/mol·K"}, {"measurement": "-TΔSb", "setting": "E. coli GluRS; [4]", "result": "-4018 ± 58"}, {"measurement": "n (stoichiometry coefficient)", "setting": "E. coli GluRS; [4]", "result": "1.001 ± 0.011"}, {"measurement": "ΔGb (reaction energy)", "setting": "E. coli GluRS; [4]", "result": -9.029, "unit": "kcal/mol"}, {"measurement": "ΔHb (reaction enthalpy)", "setting": "E. coli GluRS; [4]", "result": "-5.007 ± 0.073", "unit": "kcal/mol"}, {"measurement": "ΔSb (reaction entropy)", "setting": "E. coli GluRS; [4]", "result": "13.26 ± 0.19", "unit": "cal/mol·K"}, {"measurement": "-TΔSb", "setting": "E. coli GluRS; [5]", "result": "-2680 ± 41"}, {"measurement": "n (stoichiometry coefficient)", "setting": "E. coli GluRS; [5]", "result": "0.9997 ± 0.0114"}, {"measurement": "ΔGb (reaction energy)", "setting": "E. coli GluRS; [5]", "result": -9.349, "unit": "kcal/mol"}, {"measurement": "ΔHb (reaction enthalpy)", "setting": "E. coli GluRS; [5]", "result": "-6.654 ± 0.102", "unit": "kcal/mol"}, {"measurement": "ΔSb (reaction entropy)", "setting": "E. coli GluRS; [5]", "result": "8.646 ± 0.132", "unit": "cal/mol·K"}, {"measurement": "-TΔSb", "setting": "E. coli GluRS; [6]", "result": "-2978 ± 147"}, {"measurement": "n (stoichiometry coefficient)", "setting": "E. coli GluRS; [6]", "result": "1.005 ± 0.037"}, {"measurement": "ΔGb (reaction energy)", "setting": "E. coli GluRS; [6]", "result": -9.217, "unit": "kcal/mol"}, {"measurement": "ΔHb (reaction enthalpy)", "setting": "E. coli GluRS; [6]", "result": "-6.225 ± 0.307", "unit": "kcal/mol"}, {"measurement": "ΔSb (reaction entropy)", "setting": "E. coli GluRS; [6]", "result": "9.607 ± 0.473", "unit": "cal/mol·K"}, {"measurement": "-TΔSb", "setting": "E. coli GluRS; [7]", "result": "-3531 ± 90"}, {"measurement": "n (stoichiometry coefficient)", "setting": "E. coli GluRS; [7]", "result": "1.006 ± 0.019"}, {"measurement": "ΔGb (reaction energy)", "setting": "E. coli GluRS; [7]", "result": -9.413, "unit": "kcal/mol"}, {"measurement": "ΔHb (reaction enthalpy)", "setting": "E. coli GluRS; [7]", "result": "-5.873 ± 0.15", "unit": "kcal/mol"}, {"measurement": "ΔSb (reaction entropy)", "setting": "E. coli GluRS; [7]", "result": "11.39 ± 0.29", "unit": "cal/mol·K"}, {"measurement": "times less efficient against murine hepatic GluRS than against E. coli GluRS", "setting": "murine hepatic GluRS", "result": 25, "unit": "times"}]}
